The record followed here is ChEMBL document CHEMBL3351698, “Melleolides induce rapid cell death in human primary monocytes and cancer cells” (Bioorg Med Chem, 2014).

For orientation: EC50 means the concentration that produces a half-maximal response.

Test [1] can be described thus: Cytotoxicity against human primary monocytes after 24 hrs by MTT assay. The note with it: Monocyte. The format is functional.
Test [2] has as its system Monocyte. Nature of the test: Induction of cell death in human primary monocytes at 0.1 to 10 uM after 4 hrs by LDH release assay. The test is classed as functional, cell-based. For orientation: LDH leaks from cells whose membrane has failed.
The subject of test [3] is MONO-MAC-6. Nature of the test: Cytotoxicity against human MONO-MAC-6 cells after 24 hrs by MTT assay. The test is classed as functional, cell-based. The note with it: MONO-MAC-6, 24 h. Background: Tetrazolium dyes change colour on reduction, which living cells bring about.
In test [4] the test system is THP-1. Nature of the test: Cytotoxicity against human THP1 cells after 24 hrs by MTT assay. The test is classed as functional, cell-based. The note with it: THP-1, 24 h.
Test [5] concerns K562. As to the kind of experiment: Cytotoxicity against human K562 cells after 24 hrs by MTT assay. The format is functional, cell-based. The note with it: K562, 24 h.
The subject of test [6] is HeLa. As to the kind of experiment: Cytotoxicity against human HeLa cells after 24 hrs by MTT assay. The format is functional, cell-based.
Test [7] concerns Monocyte. As to the kind of experiment: Cytotoxicity against human primary monocytes up to 1 uM after 24 hrs by MTT assay. The format is functional.
The test system of test [8] is HeLa. As to the kind of experiment: Cytotoxicity against human HeLa cells assessed as reduction in cell viability at 1 uM after 18 hrs by inverse MTT assay. The test is classed as functional, cell-based.
The test system of test [9] is Monocyte. As to the kind of experiment: Cytotoxicity against human primary monocytes assessed as reduction in cell viability at 1 uM after 18 hrs by inverse MTT assay. The test is classed as functional.
In test [10] the test system is HeLa. Nature of the test: Cytotoxicity against human HeLa cells assessed as reduction in cell viability at 1 uM after 2 to 5 hrs by inverse MTT assay. The test is classed as functional, cell-based.
For test [11], the system named is Monocyte. As to the kind of experiment: Cytotoxicity against human primary monocytes assessed as reduction in cell viability at 1 uM after 2 to 5 hrs by inverse MTT assay. The format is functional.
Test [12] deals with Monocyte. Nature of the test: Cytotoxicity against human primary monocytes at 0.001 to 1 uM after 24 hrs by MTT assay. The test is classed as functional.
For test [13], the system named is Monocyte. As to the kind of experiment: Induction of apoptosis in human primary monocytes at 3 uM by PE Annexin V and 7-aminoactinomycin staining based flow cytometry. The format is functional, cell-based. On the technique in general: In flow cytometry, cells or beads pass a laser one at a time.
Test [14] deals with HeLa. Nature of the test: Cytotoxicity against human HeLa cells assessed as reduction in cell viability at 3 uM after 18 hrs by inverse MTT assay. The test is classed as functional, cell-based.
Test [15] concerns Monocyte. Nature of the test: Induction of apoptosis in human primary monocytes assessed as apoptotic bodies formation at 3 uM after 3 hrs by light microscopy. The test is classed as functional, cell-based.
Test [16] deals with HeLa. As to the kind of experiment: Cytotoxicity against human HeLa cells at 0.001 to 1 uM after 24 hrs by MTT assay. The format is functional, cell-based.
For test [17], the system named is HeLa. Nature of the test: Cytotoxicity against human HeLa cells assessed as reduction in cell viability at 3 uM after 2 hrs by inverse MTT assay. The format is functional, cell-based.
Test [18] relates to Monocyte. Nature of the test: Induction of necrosis in human primary monocytes at 3 uM by PE Annexin V and 7-aminoactinomycin staining based flow cytometry. The test is classed as functional, cell-based.
The test system of test [19] is Monocyte. As to the kind of experiment: Cytotoxicity against human primary monocytes assessed as reduction in cell viability at 3 uM after 2 hrs by inverse MTT assay. The format is functional.
Test [20] has as its system Monocyte. Nature of the test: Cytotoxicity against human primary monocytes assessed as reduction in cell viability at 3 uM after 18 hrs by inverse MTT assay. The format is functional.
The test system of test [21] is Monocyte. Nature of the test: Induction of cell death in human primary monocytes at 3 uM after 4 hrs by LDH release assay. The format is functional, cell-based.
The subject of test [22] is Monocyte. Nature of the test: Induction of apoptosis in human primary monocytes assessed as nuclear fragmentation at 3 uM after 3 hrs by light microscopy. The format is functional, cell-based.
The subject of test [23] is HeLa. As to the kind of experiment: Cytotoxicity against human HeLa cells assessed as reduction in cell viability at 25 uM after 2 to 5 hrs by inverse MTT assay. The format is functional, cell-based.
For test [24], the system named is Monocyte. Nature of the test: Cytotoxicity against human primary monocytes assessed as reduction in cell viability at 25 uM after 2 to 5 hrs by inverse MTT assay. The format is functional.
Test [25] concerns HeLa. As to the kind of experiment: Cytotoxicity against human HeLa cells assessed as reduction in cell viability at 25 uM after 18 hrs by inverse MTT assay. The format is functional, cell-based.
The test system of test [26] is Monocyte. As to the kind of experiment: Cytotoxicity against human primary monocytes assessed as reduction in cell viability at 25 uM after 18 hrs by inverse MTT assay. The format is functional.
Test [27] deals with Monocyte. Nature of the test: Induction of morphological changes in human primary monocytes assessed as plasma membrane rupture at 5 uM after 1 hr by light microscopy. The test is classed as functional, cell-based.
Test [28] deals with Monocyte. Nature of the test: Induction of morphological changes in human primary monocytes assessed as blebs formation at 5 uM after 1 hr by light microscopy. The test is classed as functional, cell-based.
The subject of test [29] is Monocyte. Nature of the test: Induction of necrosis in human primary monocytes at 5 uM after 1 to 3 hrs by light microscopy. The format is functional, cell-based.
Test [30] can be described thus: Cytotoxicity against human primary monocytes assessed as reduction in cell viability at 5 uM after 2 hrs by inverse MTT assay. The format is functional, Monocyte.
Test [31] relates to Monocyte. As to the kind of experiment: Induction of necrosis in human primary monocytes at 5 uM by PE Annexin V and 7-aminoactinomycin staining based flow cytometry. The format is functional, cell-based.
A short description of test [32]: Reduction in metabolic activity in mitochondria isolated from human MONO-MAC-6 cells after 3 hrs up to 10 uM by MTT assay. On the set-up: scale not given: the % may be the effect or the level left. The test is classed as functional.
The subject of test [33] is HeLa. Nature of the test: Cytotoxicity against human HeLa cells assessed as reduction in cell viability at 5 uM after 2 hrs by inverse MTT assay. The format is functional.
Test [34] concerns Monocyte. As to the kind of experiment: Induction of apoptosis in human primary monocytes at 5 uM by PE Annexin V and 7-aminoactinomycin staining based flow cytometry. The test is classed as functional, cell-based.
Test [35] deals with Monocyte. As to the kind of experiment: Induction of morphological changes in human primary monocytes assessed as blebs formation at 5 uM after 15 mins by light microscopy. The format is functional, cell-based.
Test [36] is described as follows: Reduction in metabolic activity in mitochondria isolated from human MONO-MAC-6 cells after 3 hrs at 10 uM by MTT assay. The format is functional.

Activity calls are given as the source filed them. The calls are words filed in the database; no cut-off is given here. Starred links: 1 amine or outer side, 2 acyl side, 3 side chain; linkers in the order of their positions; H or OH if unused. Positions of bridges follow the written chain, without caps; N, C: chain ends. Non-standard residues stand in square brackets, D forms with d. Residues, ends and D or L forms follow the SMILES beside them. Chains are numbered I, II in the order given. Actinocin(9to1) = Cc1c2oc3c(C)ccc(C(=O)[*:1])c3nc-2c(C(=O)[*:2])c(N)c1=O; NMeV = CN[C@H](C(=O)O)C(C)C; Sar = CNCC(=O)O

As to `COc1cc(O)c(C(=O)O[C@@H]2C[C@]3(C)[C@H]4[C@@H](O)C(C)(C)C[C@@]4(O)C=C(CO)[C@]23O)c(C)c1Cl` [MELLEOLIDE D], the EC50 was 60.7 µM in test [1]; 48.6 µM in test [3]; above 100 µM in [4]; above 100 µM in test [5]; above 100 µM in test [6]. Also, the outcome in [2] was inactive.
As to `COc1cc(O)c(C(=O)O[C@@H]2C[C@]3(C)[C@H]4CC(C)(C)C[C@H]4C=C(C=O)[C@]23O)c(C)c1Cl` [ARMILLARIDIN], the EC50 in test [1] came to 12.3 µM; in test [3], 5.6 µM; in test [4], 4.5 µM; in test [5], 8.9 µM; in [6] it was 9.2 µM.
Take `COc1cc(C)c(C(=O)O[C@@H]2C[C@]3(C)[C@H]4CC(C)(C)C[C@H]4C=C(C=O)[C@]23O)c(O)c1` [ARMILLARIN]: the EC50 in test [1] stood at 43.2 µM; in test [3] it was 6.6 µM; in [4], 4.8 µM; in test [5], 23.7 µM; in test [6] it was 16.7 µM.
Regarding `CC[C@H](C)[C@H](NC(=O)[C@H]1CCCCN1C)C(=O)N(C)[C@H](CCc1nc(C(=O)N[C@@H](Cc2ccccc2)C[C@H](C)C(=O)O)cs1)C(C)C`, the result in test [7] was inactive. Moreover, the EC50 in test [3] was found to be 0.03 µM.
For the compound `Cc1c2oc3c(C)ccc(C(=O)N[C@@H]4C(=O)N[C@H](C(C)C)C(=O)N5CCC[C@H]5C(=O)N(C)CC(=O)N(C)[C@@H](C(C)C)C(=O)O[C@@H]4C)c3nc-2c(C(=O)N[C@@H]2C(=O)N[C@H](C(C)C)C(=O)N3CCC[C@H]3C(=O)N(C)CC(=O)N(C)[C@@H](C(C)C)C(=O)O[C@@H]2C)c(N)c1=O` (I: T[dV]P[Sar][NMeV] / II: T[dV]P[Sar][NMeV]; ester I:1-I:C, II:1-II:C; linker I:N-II:N via Actinocin(9to1)), the result in test [8] and in test [9] was Active. Also, the result in test [10] and in [11] was inactive.
On to `CN[C@@H]1C[C@H]2O[C@@](C)([C@@H]1OC)n1c3ccccc3c3c4c(c5c6ccccc6n2c5c31)C(=O)NC4`, for which the result in test [12], in test [17], in test [18] and in test [19] was inactive. Also, the outcome in [13], in test [14], in [15], in test [16], in test [20] and in [21] was Active. Moreover, in test [22], the result was Active.
For `C[C@@H]1C[C@@H]([C@H](O)CC2CC(=O)NC(=O)C2)C(=O)[C@@H](C)C1`, the result in [23] and in test [24] was inactive. For the same compound, the outcome in test [25] and in test [26] was Active.
`COc1cc(C)c(C(=O)O[C@@H]2C[C@@]3(C)C2=C(C=O)[C@@H](O)[C@@H]2CC(C)(C)C[C@@H]23)c(O)c1`: the EC50 in test [1] came out at 3.1 µM; in test [3] it was 2.9 µM; in test [4], 2.4 µM; in test [5], 4.1 µM; in [6], 12.3 µM.
As for `Cc1cc(O)cc(O)c1C(=O)O[C@@H]1C[C@@]2(C)C1=C(C=O)[C@@H](O)[C@@H]1CC(C)(C)C[C@@H]12` [DEHYDROARMILLYLORSELLINATE], the EC50 in test [1] came to 2.3 µM; in test [3] it was 4.2 µM; in [4], 3 µM; in test [5] it was 5 µM; in test [6], 1.6 µM. The outcome in [2], in test [27], in test [28], in [29], in test [31] and in test [35] was Active. The Activity in [30] turned out to be 40%; in [32] it was 50%; in [33], 40%. The outcome in [34] was inactive.
In the case of `COc1cc(O)c(C(=O)O[C@@H]2C[C@@]3(C)C2=C(C=O)[C@@H](O)[C@@H]2CC(C)(C)C[C@@H]23)c(C)c1Cl` [ARNAMIAL], the EC50 in [1] was determined as 3.8 µM; in [3] it was 3.2 µM; in test [4] it was 2.9 µM; in test [5] it was 2.3 µM; in test [6] it was 4.9 µM.
On to `N#CC(C#N)=NNc1cccc(Cl)c1`, for which the result in [36] was Active.
